What was measured:
[1] = target: [3H]Noradenaline reuptake in rat brain tissue; assay: in vitro [3H]noradrenaline reuptake inhibition in rat brain tissue; assay type: biochemical; details: means of ≧3 separate determinations
[2] = target: [3H]Dopamine reuptake in rat brain tissue; assay: in vitro [3H]dopamine reuptake inhibition in rat brain tissue; assay type: biochemical; details: means of ≧3 separate determinations

## CC(NC(C)(C)C)C(=O)c1cccc(Cl)c1 (stereo not shown) [Bupropion]
[1]
  Ki: 2590 nM
[2]
  Ki: 409 nM

## COc1ccc(C(CN(C)C)C2(O)CCCCC2)cc1 (stereo not shown) [Venlafaxine]
[1]
  Ki: 196 nM
[2]
  Ki: 2590 nM

Reference: patent US6365633B1, “Method of treating eating disorders” (Knoll Pharmaceutical Company, priority 1999, dated 2002)
